The values that follow come from the supplement of paper PMC8967900.

The structures appear in SMILES notation.
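Note: ALL cell lines in 384-well plates, five doses spanning 10,000-fold, each plate scaled between vehicle and 100 µmol/L benzalkonium chloride controls, sDSS an adapted area-under-curve metric.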

One test concerns TMD5. In words: selective drug sensitivity score (sDSS, relative to normal bone marrow) (sDSS (score)); higher = more potent and effective on the cell line relative to normal bone marrow cells. The settings on record: 72 h.
Consider `O=c1sn(-c2cccc3ccccc23)c(=O)n1Cc1ccccc1` [Tideglusib] (top concentration 3000 nM), for which the “selective drug sensitivity score” value is -0.3.
On to `COc1cc2nccc(Oc3ccc(NC(=O)Nc4cc(C)on4)c(Cl)c3)c2cc1OC` [Tivozanib] (top concentration 10000 nM), for which the “selective drug sensitivity score” value amounted to 5.66.
`Cc1cc(Nc2cc(N3CCN(C)CC3)nc(Sc3ccc(NC(=O)C4CC4)cc3)n2)n[nH]1` [Tozasertib] (top concentration 10000 nM): the “selective drug sensitivity score” value came to 14.8.
Same read-out and setting: the value for `CC1=C(/C=C/C(C)=C/C=C/C(C)=C/C(=O)O)C(C)(C)CCC1` [Tretinoin] (top concentration 10000 nM) was -2.4; that for `COC(=O)c1ccc2c(c1)[nH]c1ncnc(NCCCN3CCCCC3)c12` [UM729] (top concentration 10000 nM) was -0.06; that for `COc1cc2c(NC3CCN(C(C)C)CC3)nc(N3CCC(F)(F)CC3)nc2cc1OCCCN1CCCC1` [UNC0642] (top concentration 10000 nM) was -0.84.
On the same count and under the same terms, for `O=C(c1ccc(C(=O)N2CCC(N3CCCC3)CC2)c(Nc2ccccc2)c1)N1CCC(N2CCCC2)CC1` [UNC1215] (top concentration 10000 nM) the value was 0; for `CCCC(CCC)C(=O)O` [Valproic_acid] (top concentration 1000000 nM), 0.
The same measure, in the same setting: the value for `Clc1ccc(Nc2nnc(Cc3ccncc3)c3ccccc23)cc1` [Vatalanib] (top concentration 10000 nM) was 0.
Turning to `CCCS(=O)(=O)Nc1ccc(F)c(C(=O)c2c[nH]c3ncc(-c4ccc(Cl)cc4)cc23)c1F` [Vemurafenib] (top concentration 10000 nM), the “selective drug sensitivity score” value turned out to be 1.26.

Another test relates to HAL-01. Described as above. The conditions noted are these: 72 h.
Turning to `NCCNc1ccc(NCCN)c2c1C(=O)c1ccncc1C2=O` [Pixantrone] (top concentration 10000 nM), the “selective drug sensitivity score” value was -1.36.
As to `c1cc(CN2CCCNCCNCCCNCC2)ccc1CN1CCCNCCNCCCNCC1` [Plerixafor] (top concentration 10000 nM), the “selective drug sensitivity score” value turned out to be 0.
The same measure, in the same setting: for `O=C(c1ccc(OCCN2CCCCC2)cc1)c1c(-c2ccc(O)cc2)sc2cc(O)ccc12` [Raloxifene] (top concentration 10000 nM) the value was 1.82.
Same read-out and setting: for `CN(C)C(=O)c1cc2cnc(Nc3ccc(N4CCNCC4)cn3)nc2n1C1CCCC1` [Ribociclib] (top concentration 10000 nM) the value was 0.38; for `CN1CCN(CCOc2cc(OC3CCOCC3)c3c(Nc4c(Cl)ccc5c4OCO5)ncnc3c2)CC1` [Saracatinib] (top concentration 10000 nM), -1.32; for `C=CC(=O)Nc1cccc(Nc2nc(Nc3ccc(OCCOC)cc3)ncc2F)c1` [Spebrutinib] (top concentration 1000 nM), 8.34.
Still for that read-out and setting: for `C[C@@H]1CN(Cc2ccc(F)cc2)[C@@H](C)CN1C(=O)c1cc2c(C(=O)C(=O)N(C)C)cn(C)c2cc1Cl` [Talmapimod] (top concentration 10000 nM) the value was 0; for `C[C@@H](C(=O)O)c1ccc(-c2ccccc2)c(F)c1` [Tarenflurbil] (top concentration 10000 nM), 4.74; for `CNC(=O)c1cc(COc2nnc(Nc3ccc(Cl)cc3)c3ccoc23)ccn1` [Telatinib] (top concentration 10000 nM), 1.8.
`O=c1sn(-c2cccc3ccccc23)c(=O)n1Cc1ccccc1` [Tideglusib] (top concentration 3000 nM): the “selective drug sensitivity score” value is -0.3.
Still for that read-out and setting: the value for `COc1cc2nccc(Oc3ccc(NC(=O)Nc4cc(C)on4)c(Cl)c3)c2cc1OC` [Tivozanib] (top concentration 10000 nM) was -0.74.
Same read-out and setting: the value for `Cc1cc(Nc2cc(N3CCN(C)CC3)nc(Sc3ccc(NC(=O)C4CC4)cc3)n2)n[nH]1` [Tozasertib] (top concentration 10000 nM) was 8.36; that for `CC1=C(/C=C/C(C)=C/C=C/C(C)=C/C(=O)O)C(C)(C)CCC1` [Tretinoin] (top concentration 10000 nM) was 1.2.
On the same count and under the same terms, the value for `COC(=O)c1ccc2c(c1)[nH]c1ncnc(NCCCN3CCCCC3)c12` [UM729] (top concentration 10000 nM) was -0.06; that for `COc1cc2c(NC3CCN(C(C)C)CC3)nc(N3CCC(F)(F)CC3)nc2cc1OCCCN1CCCC1` [UNC0642] (top concentration 10000 nM) was -3.54; that for `O=C(c1ccc(C(=O)N2CCC(N3CCCC3)CC2)c(Nc2ccccc2)c1)N1CCC(N2CCCC2)CC1` [UNC1215] (top concentration 10000 nM) was 0.
Regarding `CCCC(CCC)C(=O)O` [Valproic_acid] (top concentration 1000000 nM), the “selective drug sensitivity score” value amounted to 0.
The same measure, in the same setting: for `Clc1ccc(Nc2nnc(Cc3ccncc3)c3ccccc23)cc1` [Vatalanib] (top concentration 10000 nM) the value was 0.
Take `CCCS(=O)(=O)Nc1ccc(F)c(C(=O)c2c[nH]c3ncc(-c4ccc(Cl)cc4)cc23)c1F` [Vemurafenib] (top concentration 10000 nM): the “selective drug sensitivity score” value turned out to be 0.16.

The test system of a further test is HPB-ALL. The description is as above. The conditions noted are these: 72 h.
For `NCCNc1ccc(NCCN)c2c1C(=O)c1ccncc1C2=O` [Pixantrone] (top concentration 10000 nM), the “selective drug sensitivity score” value is -2.66.
For `c1cc(CN2CCCNCCNCCCNCC2)ccc1CN1CCCNCCNCCCNCC1` [Plerixafor] (top concentration 10000 nM), the “selective drug sensitivity score” value came out at 0.
For the compound `O=C(c1ccc(OCCN2CCCCC2)cc1)c1c(-c2ccc(O)cc2)sc2cc(O)ccc12` [Raloxifene] (top concentration 10000 nM), the “selective drug sensitivity score” value stood at 5.02.
Same read-out and setting: the value for `CN(C)C(=O)c1cc2cnc(Nc3ccc(N4CCNCC4)cn3)nc2n1C1CCCC1` [Ribociclib] (top concentration 10000 nM) was 2.78.
Still for that read-out and setting: for `CN1CCN(CCOc2cc(OC3CCOCC3)c3c(Nc4c(Cl)ccc5c4OCO5)ncnc3c2)CC1` [Saracatinib] (top concentration 10000 nM) the value was -1.02.
On the same count and under the same terms, for `C=CC(=O)Nc1cccc(Nc2nc(Nc3ccc(OCCOC)cc3)ncc2F)c1` [Spebrutinib] (top concentration 1000 nM) the value was -0.16.
`C[C@@H]1CN(Cc2ccc(F)cc2)[C@@H](C)CN1C(=O)c1cc2c(C(=O)C(=O)N(C)C)cn(C)c2cc1Cl` [Talmapimod] (top concentration 10000 nM): the “selective drug sensitivity score” value was found to be 0.
Same read-out and setting: for `C[C@@H](C(=O)O)c1ccc(-c2ccccc2)c(F)c1` [Tarenflurbil] (top concentration 10000 nM) the value was -0.16; for `CNC(=O)c1cc(COc2nnc(Nc3ccc(Cl)cc3)c3ccoc23)ccn1` [Telatinib] (top concentration 10000 nM), 0.9.
Same read-out and setting: the value for `O=c1sn(-c2cccc3ccccc23)c(=O)n1Cc1ccccc1` [Tideglusib] (top concentration 3000 nM) was -0.3; that for `COc1cc2nccc(Oc3ccc(NC(=O)Nc4cc(C)on4)c(Cl)c3)c2cc1OC` [Tivozanib] (top concentration 10000 nM) was -0.44.
As for `Cc1cc(Nc2cc(N3CCN(C)CC3)nc(Sc3ccc(NC(=O)C4CC4)cc3)n2)n[nH]1` [Tozasertib] (top concentration 10000 nM), the “selective drug sensitivity score” value was 7.46.
Same read-out and setting: the value for `CC1=C(/C=C/C(C)=C/C=C/C(C)=C/C(=O)O)C(C)(C)CCC1` [Tretinoin] (top concentration 10000 nM) was -1.7; that for `COC(=O)c1ccc2c(c1)[nH]c1ncnc(NCCCN3CCCCC3)c12` [UM729] (top concentration 10000 nM) was 0.64.
On the same count and under the same terms, for `COc1cc2c(NC3CCN(C(C)C)CC3)nc(N3CCC(F)(F)CC3)nc2cc1OCCCN1CCCC1` [UNC0642] (top concentration 10000 nM) the value was -2.84; for `O=C(c1ccc(C(=O)N2CCC(N3CCCC3)CC2)c(Nc2ccccc2)c1)N1CCC(N2CCCC2)CC1` [UNC1215] (top concentration 10000 nM), 0; for `CCCC(CCC)C(=O)O` [Valproic_acid] (top concentration 1000000 nM), 0.
Still for that read-out and setting: for `Clc1ccc(Nc2nnc(Cc3ccncc3)c3ccccc23)cc1` [Vatalanib] (top concentration 10000 nM) the value was 0.
With `CCCS(=O)(=O)Nc1ccc(F)c(C(=O)c2c[nH]c3ncc(-c4ccc(Cl)cc4)cc23)c1F` [Vemurafenib] (top concentration 10000 nM), the “selective drug sensitivity score” value is -0.44.
